Assay results reported in PubChem BioAssay AID2060885 (Molecular Pharmacology Branch, DTP, NCI, 2025).
pIC50: −log10 of the molar value.

System: NCI-H23 complex spheroids with HUVEC/MSC, viability
Assay: Anticancer human tumor NCI-H23 cell line growth inhibition [RAS];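 also: spheroids exposed to compound for 7 days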;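 as to viability, T/C: 100% = DMSO vehicle control viability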
Conditions: for pIC50: curve of first compound; for viability, T/C: stronger effect = lower value
From the text: RAS pathway inhibitors in Combinations in Complex Spheroids
A high-throughput screen of multi-cell type tumor spheroids was designed to identify active combinations of RAS pathway inhibitors and targeted small molecules. Complex spheroids include a stromal component modeled by human endothelial cells (HUVEC) and fibroblasts modeled by human mesenchymal stem cells (MSCs). The concentration ranges selected for each drug and investigational agent were based upon clinically achievable concentrations if the clinical Cmax of the agent was known.
Compounds. The drugs and investigational agents: abemaciclib (NSC768073), cobimetinib (NSC768068), divarasib (GDC6063, NSC841802), docetaxel (NSC628503), GDC-1971 (RLY-1971, NSC841576), gemcitabine (NSC613327), inavolisib (NSC800729), ipatasertib (NSC767898), KB-0742 (NSC834161), MRTX-1133 (NSC836407), osimertinib (NSC779217), RMC-4630 (NSC839698), RMC-6236 (NSC851965), RMC-6291 (NSC852671), Ro-3306 (NSC812927), sapanisertib (NSC764658), SN-38 (NSC673596), staurosporine (NSC755774), SY5609 (NSC837396), and tovorafenib (DAY101, NSC766906), were obtained from the National Cancer Institute (NCI) Developmental Therapeutics Program Chemical Repository. The FDA-approved anticancer drug set is available from the NCI Developmental Therapeutics Program. […] The stock solutions were prepared in dimethyl sulfoxide (DMSO, Sigma-Aldrich, St. Louis, MO, cat. D2650) at 800-fold the tested concentration and stored at -70 degrees C prior to their use. All drugs and investigational agents were tested over a range starting from a high concentration at or near the clinical Cmax and decreasing in half-log increments. If the clinical Cmax for an agent had not been determined, the highest concentration tested was 10 microM.
Cell Culture. All cells were maintained in an incubator at 37 degrees C and 5% CO2 with 95% humidity. The PDC lines were cultured according to standard operating procedures established by the NCI PDMR. All PDCs were thawed and cultured in Matrigel-coated flasks prepared with a working solution of 1X Ham's F-12 nutrient mix, without supplementation (Invitrogen, Waltham, MA, cat. 11765054), 100 U/mL penicillin-streptomycin (Invitrogen, cat. 15140122), and 2.5% Matrigel (Corning Inc., Corning, NY, cat. 354248) for the first three passages. The 362531-283-R-J2-PDC and 782815-120-R-J1-PDC lines were cultured in 6C/Colon 1B media, which includes advanced DMEM/F-12 (Thermo Fisher Scientific, cat. 12634028), 10 mM HEPES (Thermo Fisher Scientific, cat. 15630080), 1X GlutaMAX supplement (Thermo Fisher Scientific, cat. 35050061), 0.1 mg/mL primocin (InvivoGen, San Diego, CA, cat. ant-pm-2), 10% defined fetal bovine serum, heat inactivated (HyClone Laboratories Inc., Logan, UT, cat. SH30070.03HI), 50% L-WRN conditioned media (ATCC, cat. CRL-3276), 1.25 mM N-Acetyl-L-cysteine (Sigma-Aldrich, cat. A9165), 10 mM nicotinamide (Sigma-Aldrich, cat. N0636), 1X B-27 supplement (Thermo Fisher Scientific, cat. 17504044), 1X N-2 supplement (Thermo Fisher Scientific, cat. 17502048), 50 ng/mL human EGF (Thermo Fisher Scientific, cat. PHG0311), and 10 microM Y-27632 dihydrochloride (Tocris Bioscience, cat. 1254). The K12877-001-R-J1-PDC line was cultured in 6I media, which includes all 6C/Colon 1B media plus 10 ng/mL human FGF-10 (PeproTech, cat. 100-26), 1 ng/mL human FGF-2 (PeproTech, cat. 100-18B), 1 µM prostaglandin E2 (Tocris Bioscience, cat. 2296), […] hydrocortisone (Sigma-Aldrich, cat. H4001), and […] bovine insulin (Sigma-Aldrich, cat. I6634). The K86415-001-R-J1-PDC line was cultured in 6D media, which includes all 6C/Colon 1B media components minus the L-WRN conditioned media. The 485176-168-R4-J1-PDC was cultured in PANC media, which includes all 6C/Colon 1B media plus 100 ng/mL human FGF-10 (PeproTech, cat. 100-26), 500 nM SB-431542 (Selleckchem, cat. S1067), and 10 nM gastrin (Tocris Bioscience, cat. 3006). […]

## CC1(O)CCCC1n1c(=O)c(C(F)F)cc2cnc(NC3CCN(S(C)(=O)=O)CC3)nc21 (configuration not stated) + CCn1c(-c2cccnc2C(C)OC)c2c3cc(ccc31)N1CCOC(CC(NC(=O)C(C(C)C)N(C)C(=O)C3(F)CCN(C(=O)C#CC(C)(C)N(C)C)CC3)C(=O)N3CCCC(N3)C(=O)OCC(C)(C)C2)C1
Second compound 0.000949 µM
  pIC50: > 7.50
Second compound 0.003 µM
  pIC50: > 7.50
Second compound 0.00949 µM
  pIC50: > 7.50
Second compound 0.03 µM
  pIC50: > 7.50
Second compound 0.0949 µM
  pIC50: > 7.50
Second compound 0.3 µM
  pIC50: > 7.50
Second compound 0.000949 µM, first compound 0.0316 µM
  viability, T/C: 27.5%
Second compound 0.000949 µM, first compound 0.1 µM
  viability, T/C: 18.5%
Second compound 0.000949 µM, first compound 0.316 µM
  viability, T/C: 15%
Second compound 0.000949 µM, first compound 1 µM
  viability, T/C: 21.3%
Second compound 0.000949 µM, first compound 3.16 µM
  viability, T/C: 18.9%
Second compound 0.000949 µM, first compound 10 µM
  viability, T/C: 1.72%
Second compound 0.003 µM, first compound 0.0316 µM
  viability, T/C: 24.7%
Second compound 0.003 µM, first compound 0.1 µM
  viability, T/C: 16.5%
Second compound 0.003 µM, first compound 0.316 µM
  viability, T/C: 17.4%
Second compound 0.003 µM, first compound 1 µM
  viability, T/C: 17.5%
Second compound 0.003 µM, first compound 3.16 µM
  viability, T/C: 20.4%
Second compound 0.003 µM, first compound 10 µM
  viability, T/C: 1.47%
Second compound 0.00949 µM, first compound 0.0316 µM
  viability, T/C: 25.2%
Second compound 0.00949 µM, first compound 0.1 µM
  viability, T/C: 14.7%
Second compound 0.00949 µM, first compound 0.316 µM
  viability, T/C: 15.8%
Second compound 0.00949 µM, first compound 1 µM
  viability, T/C: 17.1%
Second compound 0.00949 µM, first compound 3.16 µM
  viability, T/C: 17.4%
Second compound 0.00949 µM, first compound 10 µM
  viability, T/C: 2.12%
Second compound 0.03 µM, first compound 0.0316 µM
  viability, T/C: 23%
Second compound 0.03 µM, first compound 0.1 µM
  viability, T/C: 16.8%
Second compound 0.03 µM, first compound 0.316 µM
  viability, T/C: 15.1%
Second compound 0.03 µM, first compound 1 µM
  viability, T/C: 18.7%
Second compound 0.03 µM, first compound 3.16 µM
  viability, T/C: 14.6%
Second compound 0.03 µM, first compound 10 µM
  viability, T/C: 2.81%
Second compound 0.0949 µM, first compound 0.0316 µM
  viability, T/C: 19.2%
Second compound 0.0949 µM, first compound 0.1 µM
  viability, T/C: 17.1%
Second compound 0.0949 µM, first compound 0.316 µM
  viability, T/C: 17.8%
Second compound 0.0949 µM, first compound 1 µM
  viability, T/C: 15.5%
Second compound 0.0949 µM, first compound 3.16 µM
  viability, T/C: 14.9%
Second compound 0.0949 µM, first compound 10 µM
  viability, T/C: 2.88%
Second compound 0.3 µM, first compound 0.0316 µM
  viability, T/C: 19.5%
Second compound 0.3 µM, first compound 0.1 µM
  viability, T/C: 16.9%
Second compound 0.3 µM, first compound 0.316 µM
  viability, T/C: 15.1%
Second compound 0.3 µM, first compound 1 µM
  viability, T/C: 16.7%
Second compound 0.3 µM, first compound 3.16 µM
  viability, T/C: 15.6%
Second compound 0.3 µM, first compound 10 µM
  viability, T/C: 2.05%
